From patent US12180214B2, “Crystalline forms of (s)-4-amino-6-((1-(3-chloro-6-phenylimidazo[1,2-b]pyridazine-7-yl)ethyl)amino)pyrimidine-5-carbonitrile as inhibitors of phosphatidylinositol-3-kinase” (HUTCHISON MEDIPHARMA LIMITED, priority 2018, dated 2024)
In brackets after ≈: the same amount, converted by molar mass.

Legend:
Assay type in all cases: physicochemical
[1] = Solubility of Form I, Form IV, and Form V in buffers of different pH; conditions: for solubility at 2 hours / solubility at 0.5 hour: buffer, 37 °C, thermodynamic from solid; for Solubility in the test buffers, conclusion: buffers pH 1.2-6.8, 37° C.
Protocol: Determination method: excess amount of samples of Form I, Form IV, and Form V of compound of Formula A were suspended in the buffers of different pH respectively. The system was saturated by shaking for a period of time at 37° C. in a water bath of constant temperature. Then the system was filtered, and the filtrate was used for determining solubility of the samples. The buffers of different pH were prepared according to the US pharmacopeia (USP40-NF35).

[2] = Stability of Form I, Form IV, and Form V under high temperature, high humidity and illumination conditions; conditions: for Stability (chemical purity and crystalline form), conclusion: high temperature, high humidity, and illumination conditions for 10 days
Protocol: Determination method: the test samples of Form I, Form IV, and Form V of compound of Formula A were placed on the culture dishes respectively, which were uncovered and placed in sealed clean containers. The containers were placed under the conditions of a temperature of 60° C., a temperature of 25° C. and a relative humidity of 92.5%±5%, and an illumination of 4500 lx±500 lx respectively for 10 days. Then sampled, investigated for the purity and crystalline form of the samples, and compared the investigation results.

[3] = Hygroscopicity by dynamic vapor sorption (DVS); conditions: relative humidity of 0-95% at 25° C.
Protocol: Determination method: the test samples of Form I, Form IV, and Form V of compound of Formula A were placed in the sample dishes of the dynamic vapor sorption instrument (DVS-INTRINSIC) respectively. Then the weight gains by moisture absorption of the samples were measured at a relative humidity of 0-95% at 25° C. The results were shown in FIG. 16, FIG. 17, and FIG. 18.

[4] = Stability of Form IV mixed with excipients (starch, microcrystalline cellulose); conditions: high temperature, high humidity, and illumination conditions, 30 days
Protocol: Determination method: 50 mg of samples of Form IV of compound of Formula A were mixed with 200 mg of excipients starch and microcrystalline cellulose respectively. The mixtures were used as Lest samples and placed on the culture dishes respectively, which were uncovered and placed in sealed clean containers. Then the containers were placed under the conditions of a temperature of 60° C., a temperature of 25° C. and a relative humidity of 92.5%±5%, and an illumination of 4500 lx±500 lx respectively for 30 days. Then sampled, investigated for the change of crystalline form of the samples, and compared the investigation results.

[5] = High humidity (92.5% RH), 25° C., 5 days
[6] = High humidity (92.5% RH), 25° C., 10 days
[7] = High temperature (60° C.), 5 days
[8] = High temperature (60° C.), 10 days
[9] = Illumination (4500 Lx), 10 days

| Structure (SMILES) | Solubility in the test buffers, conclusion [1] | Chemical purity (%) ([2]; 0 day) | Chemical purity (%) [2, 5] | Chemical purity (%) [2, 6] | Chemical purity (%) [2, 7] | Chemical purity (%) [2, 8] | Chemical purity (%) ([2]; Illumination (4500 Lx), 5 days) | Chemical purity (%) [2, 9] | Stability (chemical purity and crystalline form), conclusion [2] | Hygroscopicity (weight gain by moisture absorption) [3] | also measured |
| --- | --- | --- | --- | --- | --- | --- | --- | --- | --- | --- | --- |
| C[C@H](Nc1ncnc(N)c1C#N)c1cc2ncc(Cl)n2nc1-c1ccccc1 [Form IV, (S)-4-amino-6-((1-(3-chloro-6-phenylimidazo[1,2-b]pyridazin-7-yl)ethyl)amino)pyrimidine-5-carbonitrile] | good solubility | 99.27% | 99.68% | 99.68% | 99.57% | 99.68% | 99.59% | 99.55% | stable | non-hygroscopic | solubility at 2 hours ([1]; pH 1.2, simulated gastric fluid, buffer pH 1.2, shaken at 37° C. water bath for 2 hours): 8560 µg/mL (≈ 21900 µM); solubility at 2 hours ([1]; pH 2.1, aqueous buffer, buffer pH 2.1, shaken at 37° C. water bath for 2 hours): 500 µg/mL (≈ 1280 µM); solubility at 2 hours ([1]; pH 4.5, aqueous buffer, buffer pH 4.5, shaken at 37° C. water bath for 2 hours): 20 µg/mL (≈ 51.2 µM); solubility at 2 hours ([1]; pH 6.8, aqueous buffer, buffer pH 6.8, shaken at 37° C. water bath for 2 hours): 20 µg/mL (≈ 51.2 µM); Stability mixed with excipients, conclusion [4]: stable |
| C[C@H](Nc1ncnc(N)c1C#N)c1cc2ncc(Cl)n2nc1-c1ccccc1 [Form V, (S)-4-amino-6-((1-(3-chloro-6-phenylimidazo[1,2-b]pyridazin-7-yl)ethyl)amino)pyrimidine-5-carbonitrile] | good solubility | 99.70% | 99.88% | 99.87% | 99.88% | 99.87% | 99.85% | 99.81% | stable | non-hygroscopic | Solubility ([1]; buffer pH 1.2, shaken at 37° C. water bath for 2 hours): 9640 µg/mL (≈ 24700 µM); Solubility ([1]; buffer pH 2.1, shaken at 37° C. water bath for 2 hours): 580 µg/mL (≈ 1480 µM); Solubility ([1]; buffer pH 4.5, shaken at 37° C. water bath for 2 hours): 20 µg/mL (≈ 51.2 µM); Solubility ([1]; buffer pH 6.8, shaken at 37° C. water bath for 2 hours): 20 µg/mL (≈ 51.2 µM) |
| C[C@H](Nc1ncnc(N)c1C#N)c1cc2ncc(Cl)n2nc1-c1ccccc1 [Form I, (S)-4-amino-6-((1-(3-chloro-6-phenylimidazo[1,2-b]pyridazin-7-yl)ethyl)amino)pyrimidine-5-carbonitrile] | good solubility | 99.76% | 99.65% | 99.60% | 99.63% | 99.63% | 99.61% | 99.45% | stable | non-hygroscopic | solubility at 0.5 hour ([1]; pH 1.2, simulated gastric fluid, buffer pH 1.2, shaken at 37° C. water bath for 0.5 hour): 10800 µg/mL (≈ 27600 µM); solubility at 0.5 hour ([1]; pH 2.1, aqueous buffer, buffer pH 2.1, shaken at 37° C. water bath for 0.5 hour): 800 µg/mL (≈ 2050 µM); solubility at 0.5 hour ([1]; pH 4.5, aqueous buffer, buffer pH 4.5, shaken at 37° C. water bath for 0.5 hour): 40 µg/mL (≈ 102 µM); solubility at 0.5 hour ([1]; pH 6.8, aqueous buffer, buffer pH 6.8, shaken at 37° C. water bath for 0.5 hour): 30 µg/mL (≈ 76.8 µM) |
